Experimental data: ChEMBL document CHEMBL4145553, “Design, synthesis, and biological evaluation of novel amide and hydrazide based thioether analogs targeting Histone deacteylase (HDAC) enzymes” (Eur J Med Chem, 2018)

Legend:
SNB-75 = test: Growth of human SNB75 cells at 10 uM incubated for 48 hrs by sulforhodamine B assay relative to control; conditions: SNB-75, 48 h
MCF7 = test: Growth inhibition of human MCF7 cells at 10 uM incubated for 48 hrs by sulforhodamine B assay relative to control; assay type: functional; conditions: MCF7, 48 h, values are per cent of control
NCI-H522 = test: Growth of human NCI-H522 cells at 10 uM incubated for 48 hrs by sulforhodamine B assay relative to control; conditions: NCI-H522, 48 h
SR = test: Growth of human SR cells at 10 uM incubated for 48 hrs by sulforhodamine B assay relative to control
Malme-3M = test: Growth of human MALME-3M cells at 10 uM incubated for 48 hrs by sulforhodamine B assay relative to control
UO-31 = test: Growth inhibition of human UO31 cells at 10 uM incubated for 48 hrs by sulforhodamine B assay relative to control; assay type: functional; conditions: UO-31, 48 h, values are per cent of control
SF-268 = test: Growth of human SF268 cells at 10 uM incubated for 48 hrs by sulforhodamine B assay relative to control; conditions: SF-268, 48 h
MDA-MB-231 = test: Growth inhibition of human MDA-MB-231 cells at 10 uM incubated for 48 hrs by sulforhodamine B assay relative to control; assay type: functional; conditions: MDA-MB-231, 48 h, values are per cent of control
SW-620 = test: Growth of human SW620 cells at 10 uM incubated for 48 hrs by sulforhodamine B assay relative to control; conditions: SW-620, 48 h
RPMI-8226 = test: Growth of human RPMI8226 cells at 10 uM incubated for 48 hrs by sulforhodamine B assay relative to control; conditions: RPMI-8226, 48 h
OVCAR-3 = test: Growth of human OVCAR3 cells at 10 uM incubated for 48 hrs by sulforhodamine B assay relative to control; conditions: OVCAR-3, 48 h
NCI/ADR-RES = test: Growth inhibition of human NCI/ADR-RES cells at 10 uM incubated for 48 hrs by sulforhodamine B assay relative to control; assay type: functional; conditions: values are per cent of control
HCT-116 = test: Growth of human HCT116 cells at 10 uM incubated for 48 hrs by sulforhodamine B assay relative to control; conditions: HCT-116, 48 h
CAKI-1 = test: Growth inhibition of human Caki1 cells at 10 uM incubated for 48 hrs by sulforhodamine B assay relative to control; assay type: functional; conditions: CAKI-1, 48 h, values are per cent of control
EKVX = test: Growth of human EKVX cells at 10 uM incubated for 48 hrs by sulforhodamine B assay relative to control
NCI-H322M = test: Growth inhibition of human NCI-H322M cells at 10 uM incubated for 48 hrs by sulforhodamine B assay relative to control; assay type: functional; conditions: values are per cent of control
HT-29 = test: Growth of human HT-29 cells at 10 uM incubated for 48 hrs by sulforhodamine B assay relative to control; conditions: HT-29, 48 h
LOX IMVI = test: Growth of human LOXIMVI cells at 10 uM incubated for 48 hrs by sulforhodamine B assay relative to control
DU-145 = test: Growth inhibition of human DU145 cells at 10 uM incubated for 48 hrs by sulforhodamine B assay relative to control; assay type: functional; conditions: DU-145, 48 h, values are per cent of control
UACC-257 = test: Growth of human UACC257 cells at 10 uM incubated for 48 hrs by sulforhodamine B assay relative to control; conditions: UACC-257, 48 h
TK-10 = test: Growth inhibition of human TK10 cells at 10 uM incubated for 48 hrs by sulforhodamine B assay relative to control; assay type: functional; conditions: TK-10, 48 h, values are per cent of control
NCI-H460 = test: Growth inhibition of human NCI-H460 cells at 10 uM incubated for 48 hrs by sulforhodamine B assay relative to control; assay type: functional; conditions: NCI-H460, 48 h, values are per cent of control
SN12C = test: Growth inhibition of human SN12C cells at 10 uM incubated for 48 hrs by sulforhodamine B assay relative to control; assay type: functional; conditions: values are per cent of control
HOP-62 = test: Growth of human HOP62 cells at 10 uM incubated for 48 hrs by sulforhodamine B assay relative to control; conditions: HOP-62, 48 h
BT-549 = test: Growth inhibition of human BT549 cells at 10 uM incubated for 48 hrs by sulforhodamine B assay relative to control; assay type: functional; conditions: BT-549, 48 h, values are per cent of control
HL-60(TB) = test: Growth inhibition of human HL-60(TB) cells at 10 uM incubated for 48 hrs by sulforhodamine B assay relative to control; assay type: functional; conditions: HL-60, 48 h, values are per cent of control
SK-MEL-28 = test: Growth of human SK-MEL-28 cells at 10 uM incubated for 48 hrs by sulforhodamine B assay relative to control; conditions: SK-MEL-28, 48 h
T47D = test: Growth inhibition of human T47D cells at 10 uM incubated for 48 hrs by sulforhodamine B assay relative to control; assay type: functional; conditions: values are per cent of control
ACHN = test: Growth inhibition of human ACHN cells at 10 uM incubated for 48 hrs by sulforhodamine B assay relative to control; assay type: functional; conditions: values are per cent of control
SNB-19 = test: Growth of human SNB19 cells at 10 uM incubated for 48 hrs by sulforhodamine B assay relative to control; conditions: SNB-19, 48 h
SF-539 = test: Growth of human SF539 cells at 10 uM incubated for 48 hrs by sulforhodamine B assay relative to control; conditions: SF-539, 48 h
HOP-92 = test: Growth inhibition of human HOP92 cells at 10 uM incubated for 48 hrs by sulforhodamine B assay relative to control; assay type: functional; conditions: HOP-92, 48 h, values are per cent of control
A498 = test: Growth inhibition of human A498 cells at 10 uM incubated for 48 hrs by sulforhodamine B assay relative to control; assay type: functional; conditions: A498, 48 h, values are per cent of control
SK-OV-3 = test: Growth inhibition of human SKOV3 cells at 10 uM incubated for 48 hrs by sulforhodamine B assay relative to control; assay type: functional; conditions: SK-OV-3, 48 h, values are per cent of control

Row | SMILES | growth, % of control at 10 µM (SNB-75) | growth, % of control at 10 µM (MCF7) | growth, % of control at 10 µM (NCI-H522) | growth, % of control at 10 µM (SR) | growth, % of control at 10 µM (Malme-3M) | growth, % of control at 10 µM (UO-31) | growth, % of control at 10 µM (SF-268) | growth, % of control at 10 µM (MDA-MB-231) | growth, % of control at 10 µM (SW-620) | growth, % of control at 10 µM (RPMI-8226) | growth, % of control at 10 µM (OVCAR-3) | growth, % of control at 10 µM (NCI/ADR-RES) | growth, % of control at 10 µM (HCT-116) | growth, % of control at 10 µM (CAKI-1) | growth, % of control at 10 µM (EKVX) | growth, % of control at 10 µM (NCI-H322M) | growth, % of control at 10 µM (HT-29) | growth, % of control at 10 µM (LOX IMVI) | growth, % of control at 10 µM (DU-145) | growth, % of control at 10 µM (UACC-257) | further results
1 | CCS/C(Nc1ccccc1)=C(\C#N)C(=O)Nc1ccc(OC)cc1 | 18.2% | 19% | 0.63% | 6.62% | 55.5% | 50% | 39.1% | 44.5% | 17.9% | 25.2% | -12.1% | -0.67% | 14.3% | 40.4% | 52.4% | 51.6% | 6.46% | 36.6% | 33.8% | 58.4% | growth, % of control at 10 µM (TK-10): 47.6%; growth, % of control at 10 µM (NCI-H460): 10.1%; growth, % of control at 10 µM (SN12C): 37.8%; growth, % of control at 10 µM (HOP-62): 34.2%; growth, % of control at 10 µM (BT-549): 40.5%; growth, % of control at 10 µM (HL-60(TB)): -15.6%; growth, % of control at 10 µM (SK-MEL-28): 58.9%; growth, % of control at 10 µM (T47D): 25.4%; growth, % of control at 10 µM (ACHN): 51.9%; growth, % of control at 10 µM (SNB-19): 23.1%; growth, % of control at 10 µM (SF-539): 29.1%; growth, % of control at 10 µM (HOP-92): 44.5%; growth, % of control at 10 µM (A498): 22.7%; growth, % of control at 10 µM (SK-OV-3): 22.4%
2 | CCS/C(Nc1ccccc1)=C(\C#N)C(=O)Nc1ccccc1 | 102% | 98.6% | 65.7% | 70.3% | 117% | 76% | 91.2% | 94.2% | 103% | 79.2% | 88.9% | 91.1% | 92.7% | 87.5% | 100% | 97.2% | 88.2% | 97.9% | 102% | 103% | growth, % of control at 10 µM (TK-10): 76.7%; growth, % of control at 10 µM (NCI-H460): 99.5%; growth, % of control at 10 µM (SN12C): 94%; growth, % of control at 10 µM (HOP-62): 93.1%; growth, % of control at 10 µM (BT-549): 103%; growth, % of control at 10 µM (HL-60(TB)): 58.1%; growth, % of control at 10 µM (SK-MEL-28): 112%; growth, % of control at 10 µM (T47D): 70.1%; growth, % of control at 10 µM (ACHN): 102%; growth, % of control at 10 µM (SNB-19): 91.2%; growth, % of control at 10 µM (SF-539): 104%; growth, % of control at 10 µM (HOP-92): 53%; growth, % of control at 10 µM (A498): 76.2%; growth, % of control at 10 µM (SK-OV-3): 88.2%
3 | CCS/C(Nc1ccccc1)=C(\C#N)C(=O)N/N=C\c1ccc(Cl)cc1Cl | -6.89% | 19.3% | 1.02% | 19.5% | 38.1% | 41.9% | 34% | 39% | 18.6% | 9.68% | 1.46% | 10.8% | 17.5% | 31.5% | 47.4% | 70.9% | 9.53% | 34.4% | 20% | 51.9% | growth, % of control at 10 µM (TK-10): 56.7%; growth, % of control at 10 µM (NCI-H460): 8.05%; growth, % of control at 10 µM (SN12C): 34.5%; growth, % of control at 10 µM (HOP-62): 36.7%; growth, % of control at 10 µM (BT-549): 45.4%; growth, % of control at 10 µM (HL-60(TB)): -31.4%; growth, % of control at 10 µM (SK-MEL-28): 60.5%; growth, % of control at 10 µM (T47D): 17.8%; growth, % of control at 10 µM (ACHN): 38.2%; growth, % of control at 10 µM (SNB-19): 19.6%; growth, % of control at 10 µM (SF-539): 4.25%; growth, % of control at 10 µM (HOP-92): 29.2%; growth, % of control at 10 µM (A498): -2.1%; growth, % of control at 10 µM (SK-OV-3): 15.5%
